Assay results from doi:10.64898/2025.12.10.692519v1 (biorxiv, 2025).
Read-outs that look alike come from different tables or passages of the source. Blank lines part the entries; values can stand above or below the compound they belong to.

What was measured:
Experiment in all cases: cells
SW-872 = settings: Homo sapiens, SW872, 144 h
REC-1 = settings: Homo sapiens, Rec1, 144 h
HRT-18 = settings: Homo sapiens, HRT-18, 144 h
MCF-7 = settings: Homo sapiens, MCF7, 144 h
ACHN = settings: Homo sapiens, ACHN, 144 h
LnCaP = settings: Homo sapiens, LNCaP, 144 h
MESSA [1] = settings: Homo sapiens, MES-SA, 144 h
PC-3 = settings: Homo sapiens, PC-3, 144 h
MESSA [2] = system: MESSA; design: species or system MES-SA/Mx2; settings: Homo sapiens, MES-SA, read-out: MES-SA
TG-LAM-139-P0 = system: TG-LAM-139-P0; design: species or system primary AML patient blasts; settings: 48 h
TG-LAM-134-P0 = system: TG-LAM-134-P0; design: species or system primary AML patient blasts; settings: 48 h
TG-LAM-135-P0 = system: TG-LAM-135-P0; design: species or system primary AML patient blasts; settings: 48 h
TG-LAM-140-P0 = system: TG-LAM-140-P0; design: species or system primary AML patient blasts; settings: 48 h
TG-LAM-77-P0 = system: TG-LAM-77-P0; design: species or system primary AML patient blasts; settings: 48 h
TG-LAM-136-P0 = system: TG-LAM-136-P0; design: species or system primary AML patient blasts; settings: 48 h
TG-LAM-145-P0 = system: TG-LAM-145-P0; design: species or system primary AML patient blasts; settings: 48 h
TG-LAM-142-P0 = system: TG-LAM-142-P0; design: species or system primary AML patient blasts; settings: 48 h
TG-LAM-138-P0 = system: TG-LAM-138-P0; design: species or system primary AML patient blasts; settings: 48 h
TG-LAM-144-P0 = system: TG-LAM-144-P0; design: species or system primary AML patient blasts; settings: 48 h
TG-LAM-141-P0 = system: TG-LAM-141-P0; design: species or system primary AML patient blasts; settings: 48 h
Karpas-299 = settings: Homo sapiens, KARPAS-299, 144 h
HL-60 = settings: Homo sapiens, HL-60, 144 h
H-1299 = settings: Homo sapiens, NCI-H1299, 144 h
HEP-2 = settings: Homo sapiens, HEp-2, 144 h
A-549 = settings: Homo sapiens, A549, 144 h
U2OS = settings: Homo sapiens, U2OS, 144 h, read-out: Eribulin
NALM-6 = settings: Homo sapiens, NALM-6, 144 h
HUT-78 = settings: Homo sapiens, HuT78, 144 h
DU-145 = settings: Homo sapiens, DU-145, 144 h
CCRF-CEM = settings: Homo sapiens, CCRF-CEM, 144 h, read-out: Lexibulin (CYT997)
786-O = settings: Homo sapiens, 786-0, 144 h, read-out: Lexibulin (CYT997)
PLC-PRF5 = settings: Homo sapiens, PLC-PRF-5, 144 h, read-out: Lexibulin (CYT997)
Tov21G = settings: Homo sapiens, TOV21G, 144 h, read-out: Lexibulin (CYT997)
U87-MG = settings: Homo sapiens, U-87 MG, 144 h, read-out: Lexibulin (CYT997)
U-118 = settings: 144 h, read-out: Lexibulin (CYT997)
NOMO-1 = settings: Homo sapiens, NOMO-1, 144 h, read-out: Lexibulin (CYT997)
HGC-27 = settings: Homo sapiens, HGC-27, 144 h, read-out: Lexibulin (CYT997)
MDA-MB-468 = settings: Homo sapiens, MDA-MB-468, 144 h, read-out: Lexibulin (CYT997)
THP-1 = settings: Homo sapiens, THP-1, 144 h, read-out: Lexibulin (CYT997)
PANC-1 = settings: Homo sapiens, PANC-1, 144 h, read-out: Lexibulin (CYT997)
MOLM-14 = settings: Homo sapiens, MOLM-14, 144 h, read-out: Lexibulin (CYT997)
TG-LAM-76-P3 = system: TG-LAM-76-P3; design: species or system primary AML patient blasts; settings: 48 h, read-out: IC50 (µM) / AzaC
TG-LAM-143-P0 = system: TG-LAM-143-P0; design: species or system primary AML patient blasts; settings: 48 h, read-out: IC50 (µM) / AzaC
TG-LAM-75-P3 = system: TG-LAM-75-P3; design: species or system primary AML patient blasts; settings: 48 h, read-out: IC50 (µM) / AzaC

Compound: C=C1C[C@@H]2CC[C@@]34C[C@H]5O[C@H]6[C@@H](O3)[C@H]3O[C@H](CC[C@@H]3O[C@H]6[C@H]5O4)CC(=O)C[C@@H]3[C@@H](OC)[C@@H](C[C@H](O)CN)O[C@H]3C[C@H]3O[C@@H](CC[C@@H]1O2)C[C@@H](C)C3=C [Eribulin]
IC50 (SW-872; read-out: Eribulin): 83 nM
IC50 (Karpas-299; read-out: Eribulin): 1 nM
IC50 (HL-60; read-out: Eribulin): 2 nM
IC50 (H-1299; read-out: Eribulin): 75 nM
IC50 (REC-1; read-out: Eribulin): 125 nM
IC50 (HRT-18; read-out: Eribulin): 99 nM
IC50 (HEP-2; read-out: Eribulin): 39 nM
IC50 (A-549; read-out: Eribulin): 3 nM
IC50 (U2OS): 32 nM
IC50 (NALM-6; read-out: Eribulin): 2 nM
IC50 (HUT-78; read-out: Eribulin): 1 nM
IC50 (MESSA [1]; read-out: Eribulin): 121 nM
IC50 (DU-145; read-out: Eribulin): 2 nM

Compound: CCC[C@H](Nc1nc(-c2ccc(NC(=O)NCC)c(OC)c2)ncc1C)c1cccnc1 [Lexibulin]
IC50 (Karpas-299; read-out: Lexibulin (CYT997)): 4 nM
IC50 (HL-60; read-out: Lexibulin (CYT997)): 8 nM
IC50 (CCRF-CEM): 8 nM
IC50 (H-1299; read-out: Lexibulin (CYT997)): 7 nM
IC50 (REC-1; read-out: Lexibulin (CYT997)): 10 nM
IC50 (786-O): 165 nM
IC50 (PLC-PRF5): 25 nM
IC50 (HRT-18; read-out: Lexibulin (CYT997)): 31 nM
IC50 (HEP-2; read-out: Lexibulin (CYT997)): 16 nM
IC50 (A-549; read-out: Lexibulin (CYT997)): 21 nM
IC50 (MCF-7; read-out: Lexibulin (CYT997)): 12 nM
IC50 (Tov21G): 13 nM
IC50 (U87-MG): 20 nM
IC50 (U-118): 13 nM
IC50 (ACHN; read-out: Lexibulin (CYT997)): 36 nM
IC50 (NALM-6; read-out: Lexibulin (CYT997)): 9 nM
IC50 (NOMO-1): 280 nM
IC50 (HGC-27): 8 nM
IC50 (LnCaP; read-out: Lexibulin (CYT997)): 52 nM
IC50 (HUT-78; read-out: Lexibulin (CYT997)): 6 nM
IC50 (MESSA [1]; read-out: Lexibulin (CYT997)): 24 nM
IC50 (MDA-MB-468): 685 nM
IC50 (DU-145; read-out: Lexibulin (CYT997)): 32 nM
IC50 (PC-3; read-out: Lexibulin (CYT997)): 142 nM
IC50 (THP-1): 9 nM
IC50 (PANC-1): 13 nM
IC50 (MOLM-14): 45 nM

Compound: Nc1ncn([C@@H]2O[C@H](CO)[C@@H](O)[C@H]2O)c(=O)n1 [5-azacytidine]
IC50 (TG-LAM-76-P3): 9.7 µM
IC50 (TG-LAM-139-P0; read-out: IC50 (µM) / AzaC): 38.5 µM
IC50 (TG-LAM-134-P0; read-out: IC50 (µM) / AzaC): 39.1 µM
IC50 (TG-LAM-135-P0; read-out: IC50 (µM) / AzaC): > 50 µM
IC50 (TG-LAM-140-P0; read-out: IC50 (µM) / AzaC): 16.7 µM
IC50 (TG-LAM-143-P0): 29.2 µM
IC50 (TG-LAM-77-P0; read-out: IC50 (µM) / AzaC): 19.2 µM
IC50 (TG-LAM-136-P0; read-out: IC50 (µM) / AzaC): > 50 µM
IC50 (TG-LAM-145-P0; read-out: IC50 (µM) / AzaC): 49.5 µM
IC50 (TG-LAM-75-P3): 13 µM
IC50 (TG-LAM-142-P0; read-out: IC50 (µM) / AzaC): > 50 µM
IC50 (TG-LAM-138-P0; read-out: IC50 (µM) / AzaC): > 50 µM
IC50 (TG-LAM-144-P0; read-out: IC50 (µM) / AzaC): 41.7 µM
IC50 (TG-LAM-141-P0; read-out: IC50 (µM) / AzaC): 20.4 µM

The remaining lines, values ahead:

IC50 (SW-872; read-out: Vincristine): 31 nM
IC50 (REC-1; read-out: Vincristine): 56 nM
IC50 (HRT-18; read-out: Vincristine): 13 nM
IC50 (MCF-7; read-out: Vincristine): 37 nM
IC50 (ACHN; read-out: Vincristine): 166 nM
IC50 (LnCaP; read-out: Vincristine): 66 nM
IC50 (MESSA [1]; read-out: Vincristine): 106 nM
IC50 (PC-3; read-out: Vincristine): 23 nM
IC50 (MESSA [2]): 7.9 ± 6 nM
IC50 (TG-LAM-139-P0; read-out: IC50 (µM) / Vinc): > 2 µM
IC50 (TG-LAM-134-P0; read-out: IC50 (µM) / Vinc): 0.17 µM
IC50 (TG-LAM-135-P0; read-out: IC50 (µM) / Vinc): > 2 µM
IC50 (TG-LAM-140-P0; read-out: IC50 (µM) / Vinc): 1.13 µM
IC50 (TG-LAM-77-P0; read-out: IC50 (µM) / Vinc): > 2 µM
IC50 (TG-LAM-136-P0; read-out: IC50 (µM) / Vinc): 1.35 µM
IC50 (TG-LAM-145-P0; read-out: IC50 (µM) / Vinc): > 2 µM
IC50 (TG-LAM-142-P0; read-out: IC50 (µM) / Vinc): > 2 µM
IC50 (TG-LAM-138-P0; read-out: IC50 (µM) / Vinc): > 2 µM
IC50 (TG-LAM-144-P0; read-out: IC50 (µM) / Vinc): 1.6 µM
IC50 (TG-LAM-141-P0; read-out: IC50 (µM) / Vinc): 1.38 µM
Compound: CC[C@]1(O)C[C@H]2CN(CCc3c([nH]c4ccccc34)[C@@](C(=O)OC)(c3cc4c(cc3OC)N(C=O)[C@H]3[C@@](O)(C(=O)OC)[C@H](OC(C)=O)[C@]5(CC)C=CCN6CC[C@]43[C@@H]65)C2)C1 [Vincristine]

IC50 (MESSA [2]): 8 ± 5 nM
Compound: CC(=O)O[C@H]1C(=O)[C@@]2(C)[C@H]([C@H](OC(=O)c3ccccc3)[C@]3(O)C[C@H](OC(=O)[C@H](O)[C@@H](NC(=O)c4ccccc4)c4ccccc4)C(C)=C1C3(C)C)[C@]1(OC(C)=O)CO[C@@H]1C[C@@H]2O [paclitaxel]
